# Tests used:
# [1] = test system: MIA PaCa-2 (KRAS G12C) cells; experiment: Cellular pERK HTRF assay (KRAS_G12C pERK); format: cell-based, human; details: Homo sapiens, MIA PaCa-2, 4 hours incubation, read-out: G12C_pERK
# Procedure, shortened: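 MIA PaCa-2 cells plated overnight, then exposed to compound for 4 h at 37 °C (G12C compounds). Phospho-ERK1/2 measured in lysates by HTRF (665/620 nm) after overnight antibody incubation; IC50 from percent inhibition versus log concentration.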
# KRAS G12C = KRAS G12C (Homo sapiens, UniProt P01116, G12C); experiment: GDP-GTP exchange assay (KRAS_G12C exchange); format: biochemical; details: bodipy-GDP loaded KRAS G12C 2.5 nM, SOS1 150 nM, GppNHp; 2 hours pre-incubation, 2 hours reaction; read-out: G12C_exchange
# Sequence of KRAS G12C (P01116 1-188 isoform P01116-2 G12C): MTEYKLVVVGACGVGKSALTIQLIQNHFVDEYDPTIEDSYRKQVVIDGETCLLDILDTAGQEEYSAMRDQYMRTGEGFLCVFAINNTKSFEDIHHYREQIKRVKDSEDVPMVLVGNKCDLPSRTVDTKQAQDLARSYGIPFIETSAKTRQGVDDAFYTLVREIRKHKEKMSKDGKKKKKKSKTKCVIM
# Procedure, shortened: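 Fluorescence exchange of bodipy-GDP for GppNHp, SOS1-driven, read at 485/520 nm; IC50 from four-parameter variable-slope fit. Both mutants used 2.5 nM final labelled protein and a 2 h compound pre-incubation. G12C reaction had 500 uM GppNHp and 150 nM SOS1 for 2 h; G12D ran 4 h.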
Compound,IC50 [1] [nM],IC50 (KRAS G12C) [nM]
"Cc1cccc(-c2c(C)cc3c(nc(N4CC(C)(N(C)C)C4)c4nnn([C@H]5CCN(C(=O)/C=C/CF)[C@H](CC#N)C5)c43)c2F)c1C [Example 209, 2-((2S,4S)-4-(4-(3-(dimethylamino)-3-methylazetidin-1-yl)-7-(2,3-dimethylphenyl)-6-fluoro-8-methyl-1H-[1,2,3]triazolo[4,5-c]quinolin-1-yl)-1-((E)-4-fluorobut-2-enoyl)piperidin-2-yl)acetonitrile]",≤ 100,≤ 100
"C=CC(=O)N1CCC(n2nnc3c(OC[C@@H]4CCCN4C)nc4c(F)c(-c5cccc(C)c5)c(Cl)cc4c32)C[C@H]1CC#N (stereo partly drawn) [Example 210, 2-((2S)-1-acryloyl-4-(8-chloro-6-fluoro-4-(((S)-1-methylpyrrolidin-2-yl)methoxy)-7-(m-tolyl)-1H-[1,2,3]triazolo[4,5-c]quinolin-1-yl)piperidin-2-yl)acetonitrile]",≤ 100,≤ 100
"C=CC(=O)N1CCC(n2nnc3c(N4CC(C)(N(C)C)C4)nc4c(F)c(-c5cccc(C)c5)c(Cl)cc4c32)C[C@H]1CC#N (stereo partly drawn) [Example 211, 2-((2S)-1-acryloyl-4-(8-chloro-4-(3-(dimethylamino)-3-methylazetidin-1-yl)-6-fluoro-7-(m-tolyl)-1H-[1,2,3]triazolo[4,5-c]quinolin-1-yl)piperidin-2-yl)acetonitrile]",≤ 100,≤ 100
"CN(C)C/C=C/C(=O)N1CCC(n2nnc3c(N4CC(C)(N(C)C)C4)nc4c(F)c(-c5cccc6cccc(Cl)c56)c(Cl)cc4c32)C[C@H]1CC#N (stereo partly drawn) [Example 217, 2-((2S)-4-(8-chloro-7-(8-chloronaphthalen-1-yl)-4-(3-(dimethylamino)-3-methylazetidin-1-yl)-6-fluoro-1H-[1,2,3]triazolo[4,5-c]quinolin-1-yl)-1-((E)-4-(dimethylamino)but-2-enoyl)piperidin-2-yl)acetonitrile]",≤ 100,≤ 100
"CC#CC(=O)N1CCC(n2cnc3c(N4CC(C)(N(C)C)C4)nc4c(F)c(-c5cccc6cccc(Cl)c56)c(C)cc4c32)C[C@H]1CC#N (stereo partly drawn) [Example 222, 2-((2S)-1-(but-2-ynoyl)-4-(7-(8-chloronaphthalen-1-yl)-4-(3-(dimethylamino)-3-methylazetidin-1-yl)-6-fluoro-8-methyl-1H-imidazo[4,5-c]quinolin-1-yl)piperidin-2-yl)acetonitrile]",≤ 100,≤ 100
"C=CC(=O)N1CCC(n2nnc3c(N4CC(C)(N(C)C)C4)nc4c(F)c(-c5cccc6cccc(Cl)c56)c(C)cc4c32)C[C@H]1CC#N (stereo partly drawn) [Example 225, 2-((2S)-1-acryloyl-4-(7-(8-chloronaphthalen-1-yl)-4-(3-(dimethylamino)-3-methylazetidin-1-yl)-6-fluoro-8-methyl-1H-[1,2,3]triazolo[4,5-c]quinolin-1-yl)piperidin-2-yl)acetonitrile]",≤ 100,≤ 100
"CC#CC(=O)N1CC[C@H](n2nnc3c(N4CC(C)(N(C)C)C4)nc4c(F)c(-c5cccc(C)c5C)c(C)cc4c32)C[C@H]1CC#N [Example 226, 2-((2S,4S)-1-(but-2-ynoyl)-4-(4-(3-(dimethylamino)-3-methylazetidin-1-yl)-7-(2,3-dimethylphenyl)-6-fluoro-8-methyl-1H-[1,2,3]triazolo[4,5-c]quinolin-1-yl)piperidin-2-yl)acetonitrile]",≤ 100,≤ 100
"C=CC(=O)N1CC[C@H](n2cnc3c(N4CC(N(C)C)C4)nc4c(F)c(-c5ccc(F)c6cccnc56)c(C(F)(F)F)cc4c32)C[C@H]1CC#N [Example 229, 2-((2S,4S)-1-acryloyl-4-(4-(3-(dimethylamino)azetidin-1-yl)-6-fluoro-7-(5-fluoroquinolin-8-yl)-8-(trifluoromethyl)-1H-imidazo[4,5-c]quinolin-1-yl)piperidin-2-yl)acetonitrile]",≤ 100,≤ 100
"Cc1c(Cl)cc2[nH]ncc2c1-c1c(CCC#N)cc2c(nc(N3CC(N(C)C)C3)c3nnn([C@H]4CCN(C(=O)/C=C/CN(C)C)[C@H](CC#N)C4)c32)c1F [Example 232, 3-(7-(6-chloro-5-methyl-1H-indazol-4-yl)-1-((2S,4S)-2-(cyanomethyl)-1-((E)-4-(dimethylamino)but-2-enoyl)piperidin-4-yl)-4-(3-(dimethylamino)azetidin-1-yl)-6-fluoro-1H-[1,2,3]triazolo[4,5-c]quinolin-8-yl)propanenitrile]",≤ 100,≤ 100
"CC#CC(=O)N1CC[C@H](n2nnc3c(N4CC(C)(N(C)C)C4)nc4c(F)c(-c5ccc(F)c6cccnc56)c(C(F)(F)F)cc4c32)C[C@H]1CC#N [Example 234, 2-((2S,4S)-1-(but-2-ynoyl)-4-(4-(3-(dimethylamino)-3-methylazetidin-1-yl)-6-fluoro-7-(5-fluoroquinolin-8-yl)-8-(trifluoromethyl)-1H-[1,2,3]triazolo[4,5-c]quinolin-1-yl)piperidin-2-yl)acetonitrile]",≤ 100,≤ 100
"CC#CC(=O)N1CC[C@H](n2nnc3c(N4CC(C)(N(C)C)C4)nc4c(F)c(-c5cccc(C)c5Cl)c(C(F)(F)F)cc4c32)C[C@H]1CC#N [Example 236, 2-((2S,4S)-1-(but-2-ynoyl)-4-(7-(2-chloro-3-methylphenyl)-4-(3-(dimethylamino)-3-methylazetidin-1-yl)-6-fluoro-8-(trifluoromethyl)-1H-[1,2,3]triazolo[4,5-c]quinolin-1-yl)piperidin-2-yl)acetonitrile]",≤ 100,≤ 100
"Cc1cccc(-c2c(C(F)(F)F)cc3c(nc(N4CC(C)(N(C)C)C4)c4nnn([C@H]5CCN(C(=O)/C=C/CN(C)C)[C@H](CC#N)C5)c43)c2F)c1Cl [Example 237, 2-((2S,4S)-4-(7-(2-chloro-3-methylphenyl)-4-(3-(dimethylamino)-3-methylazetidin-1-yl)-6-fluoro-8-(trifluoromethyl)-1H-[1,2,3]triazolo[4,5-c]quinolin-1-yl)-1-((E)-4-(dimethylamino)but-2-enoyl)piperidin-2-yl)acetonitrile]",≤ 100,≤ 100
"CC#CC(=O)N1CC[C@H](n2nnc3c(N4CC(C)(N(C)C)C4)nc4c(F)c(-c5cccc(Cl)c5C)c(C(F)(F)F)cc4c32)C[C@H]1CC#N [Example 239a, 2-((2S,4S)-1-(but-2-ynoyl)-4-(7-(3-chloro-2-methyl-phenyl)-4-(3-(dimethyl-amino)-3-methylazetidin-1-yl)-6-fluoro-8-(trifluoro-methyl)-1H-[1,2,3]triazolo-[4,5-c]quinolin-1-yl)piperidin-2-yl)acetonitrile]",≤ 100,≤ 100
"Cc1c(Cl)cccc1-c1c(C(F)(F)F)cc2c(nc(N3CC(C)(N(C)C)C3)c3nnn([C@H]4CCN(C(=O)/C=C/CN(C)C)[C@H](CC#N)C4)c32)c1F [Example 240, 2-((2S,4S)-4-(7-(3-chloro-2-methylphenyl)-4-(3-(dimethylamino)-3-methylazetidin-1-yl)-6-fluoro-8-(trifluoromethyl)-1H-[1,2,3]triazolo[4,5-c]quinolin-1-yl)-1-((E)-4-(dimethylamino)but-2-enoyl)piperidin-2-yl)acetonitrile]",≤ 100,≤ 100

# Source: US20210269434A1, “TRICYCLIC COMPOUNDS AS INHIBITORS OF KRAS” (Incyte Corporation, priority 2020, published 2021)
